Structures can show the parent of a compound that is named as a salt.

The target in this test is human MCH-1 receptor (Homo sapiens, UniProt Q99705). In words: Binding assay for human melanin-concentrating hormone (MCH-1) receptor, radioligand displacement on CHO-K1 cell membranes.
Chain of human MCH-1 receptor (Q99705 whole entry): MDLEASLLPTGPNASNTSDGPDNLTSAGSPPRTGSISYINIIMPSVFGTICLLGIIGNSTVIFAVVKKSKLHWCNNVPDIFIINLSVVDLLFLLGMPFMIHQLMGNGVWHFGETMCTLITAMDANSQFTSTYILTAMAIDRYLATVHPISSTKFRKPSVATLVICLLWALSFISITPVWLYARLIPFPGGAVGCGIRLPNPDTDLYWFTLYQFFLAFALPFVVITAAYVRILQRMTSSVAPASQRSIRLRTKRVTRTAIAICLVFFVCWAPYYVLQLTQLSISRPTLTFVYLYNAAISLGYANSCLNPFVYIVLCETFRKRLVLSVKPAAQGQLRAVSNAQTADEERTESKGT
Experimental: Nonspecific binding was determined in the presence of 50 μM 1-(5-(4-cyanophenyl)bicyclo[3.1.0]hexan-2-yl)-3-(4-fluoro-3-(trifluoromethyl)phenyl)-1-(3-(4-methylpiperazin-1-yl)propyl)urea. […] The filters were counted for radioactivity in a liquid scintillation counter (Tri-Carb 2100TR, Packard) using a scintillation cocktail (Ultima Gold MV, Perkin Elmer).
The results are expressed as a percent inhibition of the control radioligand specific binding. The IC50 value (concentration causing a half-maximal inhibition of control specific binding) and Hill coefficient (nH) were determined by non-linear regression analysis of the competition curve using Hill equation curve fitting.
Regarding `O=c1cc(OCc2ccccc2)ccn1-c1ccc2c3c(oc2c1)CNCC3` [Example 2, 4-(Benzyloxy)-1-(1,2,3,4-tetrahydrobenzofuro[2,3-c]pyridin-7-yl)pyridin-2(1H)-one hydrochloride], the Ki was 23 nM.
On to `O=c1cc(OCc2ccc(F)cn2)ccn1-c1ccc2c3c(oc2c1)CNCC3` [Example 3, 4-((5-Fluoropyridin-2-yl)methoxy)-1-(1,2,3,4-tetrahydrobenzofuro[2,3-c]pyridin-7-yl)pyridin-2(1H)-one hydrochloride], for which affinity was put at a Ki of 59 nM.
Under `O=c1cc(-c2ccc(C(F)(F)F)nc2)ccn1-c1ccc2c3c(oc2c1)CNCC3` [Example 4, 1′-(1,2,3,4-Tetrahydrobenzofuro[2,3-c]pyridin-7-yl)-6-(trifluoromethyl)-[3,4′-bipyridin]-2′(1′H)-one hydrochloride] stands 1310 nM; under `O=c1cc(-c2ccc(C(F)(F)F)nc2)ccn1-c1ccc2c3c(oc2c1)CCNC3` [Example 5, 1′-(1,2,3,4-Tetrahydrobenzofuro[3,2-c]pyridin-7-yl)-6-(trifluoromethyl)-[3,4′-bipyridin]-2′(1′H)-one hydrochloride], 56 nM.
Take `O=c1cc(OCc2ccccc2)ccn1-c1ccc2c3c(oc2c1)CCNC3` [Example 6, 4-(Benzyloxy)-1-(1,2,3,4-tetrahydrobenzofuro[3,2-c]pyridin-7-yl)pyridin-2(1H)-one hydrochloride]: the affinity corresponds to a Ki of 3.3 nM.
Then `O=c1cc(OCc2ccc(F)cn2)ccn1-c1ccc2c3c(oc2c1)CCNC3` [Example 7, 4-((5-Fluoropyridin-2-yl)methoxy)-1-(1,2,3,4-tetrahydrobenzofuro[3,2-c]pyridin-7-yl)pyridin-2(1H)-one hydrochloride], with 7.3 nM; and `C[C@@H]1Cc2oc3cc(-n4ccc(OCc5ccccn5)cc4=O)ccc3c2CN1` [Example 8, (R)-1-(3-Methyl-1,2,3,4-tetrahydrobenzofuro[3,2-c]pyridin-7-yl)-4-(pyridin-2-ylmethoxy)pyridin-2(1H)-one hydrochloride], with 57 nM; and `C[C@@H]1Cc2oc3cc(-n4ccc(OCc5ccc(F)cn5)cc4=O)ccc3c2CN1` [Example 9, (R)-4-((5-Fluoropyridin-2-yl)methoxy)-1-(3-methyl-1,2,3,4-tetrahydrobenzofuro[3,2-c]pyridin-7-yl)pyridin-2(1H)-one], with 10 nM.
Under `O=c1cc(OCc2ccc(Cl)cn2)ccn1-c1ccc2c3c(oc2c1)CCNC3` [Example 10, 4-((5-Chloropyridin-2-yl)methoxy)-1-(1,2,3,4-tetrahydrobenzofuro[3,2-c]pyridin-7-yl)pyridin-2(1H)-one hydrochloride] stands 3.3 nM; under `O=c1cc(-c2ccc(C(F)(F)F)cn2)ccn1-c1ccc2c3c(oc2c1)CCNC3` [Example 11, 1′-(1,2,3,4-Tetrahydrobenzofuro[3,2-c]pyridin-7-yl)-5-(trifluoromethyl)-[2,4′-bipyridin]-2′(1′H)-one hydrochloride], 166 nM; under `O=c1cc(-c2ccc(C(F)(F)F)cn2)ccn1-c1ccc2c3c(sc2c1)CNCC3` [Example 12, 1-(1,2,3,4-Tetrahydrobenzothieno[2,3-c]pyridin-7-yl)-4-(5-(trifluoromethyl)pyridin-2-yl)pyridin-2(1H)-one hydrochloride], 93 nM.
Take `O=c1cc(OCc2ccc(Cl)cn2)ccn1-c1ccc2c3c(sc2c1)CNCC3` [Example 13, 4-((5-Chloropyridin-2-yl)methoxy)-1-(1,2,3,4-tetrahydrobenzothieno[2,3-c]pyridin-7-yl)pyridin-2(1H)-one hydrochloride]: the Ki was found to be 3.1 nM.
As for `O=c1cc(OCc2ccc(F)cn2)ccn1-c1ccc2c3c(sc2c1)CNCC3` [Example 14, 4-((5-Fluoropyridin-2-yl)methoxy)-1-(1,2,3,4-tetrahydrobenzothieno[2,3-c]pyridin-7-yl)pyridin-2(1H)-one hydrochloride], affinity was put at a Ki of 6.2 nM.
`O=c1cc(OCc2ccccc2)ccn1-c1ccc2c3c(sc2c1)CNCC3` [Example 15, 4-(Benzyloxy)-1-(1,2,3,4-tetrahydrobenzothieno[2,3-c]pyridin-7-yl)pyridin-2(1H)-one] returned a Ki of 4 nM.
`O=c1cc(-c2ccc(C(F)(F)F)cn2)ccn1-c1ccc2c3c(sc2c1)CNCCC3` [Example 17, 1-(2,3,4,5-Tetrahydro-1H-benzothieno[2,3-c]azepin-8-yl)-4-(5-(trifluoromethyl)pyridin-2-yl)pyridin-2(1H)-one] came in with a Ki of 927 nM.
`O=c1cc(OCc2ccc(F)cn2)ccn1-c1ccc2c3c(sc2c1)CNCCC3` [Example 18, 4-((5-Fluoropyridin-2-yl)methoxy)-1-(2,3,4,5-tetrahydro-1H-benzothieno[2,3-c]azepin-8-yl)pyridin-2(1H)-one] gave a Ki of 12 nM.
Then `O=c1cc(OCc2ccccc2)ccn1-c1ccc2c3c(sc2c1)CNCCC3` [Example 19, 4-(Benzyloxy)-1-(2,3,4,5-tetrahydro-1H-benzothieno[2,3-c]azepin-8-yl)pyridin-2(1H)-one], with 8.2 nM.
Then `O=c1cc(OCc2ccc(Cl)cn2)ccn1-c1ccc2c3c(sc2c1)CCNCC3` [Example 20, 4-((5-Chloropyridin-2-yl)methoxy)-1-(2,3,4,5-tetrahydro-1H-benzothieno[2,3-d]azepin-8-yl)pyridin-2(1H)-one], with 3.8 nM; and `O=c1cc(OCc2ccc(F)cn2)ccn1-c1ccc2c3c(sc2c1)CCNCC3` [Example 21, 4-((5-Fluoropyridin-2-yl)methoxy)-1-(2,3,4,5-tetrahydro-1H-benzothieno[2,3-d]azepin-8-yl)pyridin-2(1H)-one], with 3.8 nM; and `O=c1cc(OCc2ccccc2)ccn1-c1ccc2c3c(sc2c1)CCNCC3` [Example 22, 4-(Benzyloxy)-1-(2,3,4,5-tetrahydro-1H-benzothieno[2,3-d]azepin-8-yl)pyridin-2(1H)-one], with 4.4 nM.
For the compound `CN1CCc2oc3cc(-n4ccc(OCc5ccc(F)cn5)cc4=O)ccc3c2C1` [Example 23, 4-((5-Fluoropyridin-2-yl)methoxy)-1-(2-methyl-1,2,3,4-tetrahydrobenzofuro[3,2-c]pyridin-7-yl)pyridin-2(1H)-one hydrochloride], the inhibition constant (Ki) stood at 11 nM.
The compound `CCN1CCc2oc3cc(-n4ccc(OCc5ccc(F)cn5)cc4=O)ccc3c2C1` [Example 24, 1-(2-Ethyl-1,2,3,4-tetrahydrobenzofuro[3,2-c]pyridin-7-yl)-4-((5-fluoropyridin-2-yl)methoxy)pyridin-2(1H)-one] came in with a Ki of 13 nM.
On to `CC(=O)N1CCc2oc3cc(-n4ccc(OCc5ccccc5)cc4=O)ccc3c2C1` [Example 25, 1-(2-Acetyl-1,2,3,4-tetrahydrobenzofuro[3,2-c]pyridin-7-yl)-4-(benzyloxy)pyridin-2(1H)-one], for which the Ki worked out at 23 nM.
Then `CCN1CCc2oc3cc(-n4ccc(OCc5ccccc5)cc4=O)ccc3c2C1` [Example 26, 4-(Benzyloxy)-1-(2-ethyl-1,2,3,4-tetrahydrobenzofuro[3,2-c]pyridin-7-yl)pyridin-2(1H)-one], with 4.9 nM.
Under `CN1CCc2oc3cc(-n4ccc(OCc5ccccc5)cc4=O)ccc3c2C1` [Example 27, 4-(Benzyloxy)-1-(2-methyl-1,2,3,4-tetrahydrobenzofuro[3,2-c]pyridin-7-yl)pyridin-2(1H)-one hydrochloride] stands 8.1 nM; under `CC(C)N1CCc2oc3cc(-n4ccc(OCc5ccc(F)cn5)cc4=O)ccc3c2C1` [Example 28, 4-((5-Fluoropyridin-2-yl)methoxy)-1-(2-isopropyl-1,2,3,4-tetrahydrobenzofuro[3,2-c]pyridin-7-yl)pyridin-2(1H-one hydrochloride], 9.8 nM.
The compound `CC(=O)N1CCc2oc3cc(-n4ccc(OCc5ccc(F)cn5)cc4=O)ccc3c2C1` [Example 29, 1-(2-Acetyl-1,2,3,4-tetrahydrobenzofuro[3,2-c]pyridin-7-yl)-4-((5-fluoropyridin-2-yl)methoxy)pyridin-2(1H)-one] came in with a Ki of 46 nM.
Compound `CC(C)N1CCc2oc3cc(-n4ccc(OCc5ccccc5)cc4=O)ccc3c2C1` [Example 30, 4-(Benzyloxy)-1-(2-isopropyl-1,2,3,4-tetrahydrobenzofuro[3,2-c]pyridin-7-yl)pyridin-2(1H)-one hydrochloride] yielded a Ki of 9 nM.
For `O=c1cc(OCc2cccc(C(F)(F)F)n2)ccn1-c1ccc2c3c(oc2c1)CCNC3` [Example 31, 1-(1,2,3,4-Tetrahydrobenzofuro[3,2-c]pyridin-7-yl)-4-((6-(trifluoromethyl)pyridin-2-yl)methoxy)pyridin-2(1H)-one hydrochloride], the Ki is 23 nM.
The compound `C[C@H]1Cc2oc3cc(-n4ccc(OCc5ccccc5)cc4=O)ccc3c2CN1` [Example 32, (S)-4-(Benzyloxy)-1-(3-methyl-1,2,3,4-tetrahydrobenzofuro[3,2-c]pyridin-7-yl)pyridin-2(1H)-one hydrochloride] yielded a Ki of 7.4 nM.
Then `C[C@@H]1NCCc2oc3cc(-n4ccc(OCc5ccccc5)cc4=O)ccc3c21` [Example 33, (S)-4-(Benzyloxy)-1-(1-methyl-1,2,3,4-tetrahydrobenzofuro[3,2-c]pyridin-7-yl)pyridin-2(1H)-one hydrochloride], with 6 nM; and `C[C@H]1Cc2oc3cc(-n4ccc(OCc5ccccn5)cc4=O)ccc3c2CN1` [Example 34, (S)-1-(3-Methyl-1,2,3,4-tetrahydrobenzofuro[3,2-c]pyridin-7-yl)-4-(pyridin-2-ylmethoxy)pyridin-2(1H)-one hydrochloride], with 38 nM.
Then `C[C@@H]1NCCc2oc3cc(-n4ccc(OCc5ccccn5)cc4=O)ccc3c21` [Example 35, (S)-1-(1-Methyl-1,2,3,4-tetrahydrobenzofuro[3,2-c]pyridin-7-yl)-4-(pyridin-2-ylmethoxy)pyridin-2(1H)-one hydrochloride], with 57 nM; and `O=c1cc(-c2ccc(C(F)(F)F)cn2)ccn1-c1ccc2c3c(oc2c1)CCCNC3` [Example 36, 1-(2,3,4,5-Tetrahydro-1H-benzofuro[3,2-c]azepin-8-yl)-4-(5-(trifluoromethyl)pyridin-2-yl)pyridin-2(1H)-one hydrochloride], with 39 nM.

Values taken from patent US20140163012A1, “PYRIDO-/AZEPINO-BENZOFURAN AND PYRIDO-/AZEPINO-BENZOTHIOPHENE MCH-1 ANTAGONISTS, METHODS OF MAKING, AND USE THEREOF” (Albany Molecular Research, Inc., priority 2012, published 2014).
